Results on one cell line are retold here after the supplement of paper PMC10307832.

Test in all cases: relative viability (nuclei count vs DMSO), 5 days (fraction); higher = more cells survive
Compound in assay [1]: CCn1c(-c2nonc2N)nc2cnc(Oc3cccc(NC(=O)c4ccc(OCCN5CCOCC5)cc4)c3)cc21 + CC(=O)Nc1cccc(-n2c(=O)n(C3CC3)c(=O)c3c(Nc4ccc(I)cc4F)n(C)c(=O)c(C)c32)c1 [Trametinib] (partner 0.02 µM)
An outline of the steps:
(§1)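 Cells from lung cancer lines were seeded into 1536-well plates and, one day later, dosed by pin tool. Treatments were either a single drug or a fixed dose of an anchor drug with five library-drug doses (not always all listed) in √10 steps. After 5 days, nuclei were stained in a one-step fixation (final 0.05% Triton X-100, 1% formaldehyde, 1 ug/ml Hoechst) and counted on 4× images, and relative viability is the treated-to-vehicle nuclei ratio, as the median of duplicate plates.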

Compound in assay [2]: CCC1=CN=CN=C1N2CCN(CC2)CC3=NC4=C(N3)C=C(C=C4)C(F)(F)F + C[C@]1(O)C[C@@H](c2nc(-c3ccc4ccc(-c5ccccc5)nc4c3)c3c(N)nccn32)C1 [Linsitinib] (partner 1 µM)
An outline of the steps: as §1

Compound in assay [3]: N=C1NC(=O)/C(=C/c2ccc(O)cc2)S1 [Mirin] + O=C(CCCCCCC(=O)Nc1ccccc1)NO [Vorinostat] (partner 1 µM)
An outline of the steps:
as §1

Compound in assay [4]: N=C1NC(=O)/C(=C/c2ccc(O)cc2)S1 [Mirin] + CC1(C)CCC(c2ccc(Cl)cc2)=C(CN2CCN(c3ccc(C(=O)NS(=O)(=O)c4ccc(N[C@H](CCN5CCOCC5)CSc5ccccc5)c(S(=O)(=O)C(F)(F)F)c4)cc3)CC2)C1 [Navitoclax] (partner 0.5 µM)
An outline of the steps: as §1

For UMC-11, the relative viability in assay [1] (first compound 0.04 µM) is 0.609; in assay [1] (first compound 0.1265 µM), 0.607; in assay [1] (first compound 0.4 µM), 0.298; in assay [1] (first compound 1.265 µM) it was 0.0887; in assay [1] (first compound 4 µM), 0.963; in assay [2] (first compound 0.04 µM), 1.03. The relative viability in assay [2] (first compound 0.1265 µM) turned out to be 1.02; in assay [2] (first compound 0.4 µM) it was 1.03; in assay [2] (first compound 1.265 µM) it was 0.958; in assay [2] (first compound 4 µM) it was 0.944; in assay [3] (first compound 0.25 µM), 0.411; in assay [3] (first compound 0.7906 µM), 0.362. In addition, the relative viability in assay [3] (first compound 2.5 µM) was found to be 0.399; in assay [3] (first compound 7.906 µM) it was 0.305; in assay [3] (first compound 25 µM), 0.266; in assay [4] (first compound 0.25 µM), 0.324; in assay [4] (first compound 0.7906 µM), 0.312; in assay [4] (first compound 2.5 µM), 0.283. In addition, the results for the relative viability in assay [4] (first compound 7.906 µM) and in assay [4] (first compound 25 µM) were 0.276 and 0.209, respectively.
